The subject of this assay is bone cells containing osteoclast cells. The assay is described as follows: Pit formation assay: inhibition of osteolysis (absorption pits on ivory slices). Conditions: 72 h; for No. of absorption pits (Mean ± SD): 10 µM; for inhibition at 10 µM: Mus musculus, Osteoclast, compound 10^-5 M, 0% = pits with rPTH (1×10^-8 M) without medicine, 100% = no absorption pit, read-out: Ratio of inhibition (%). Format: cell-based, ICR mice. The protocol: ICR mice 11-12 days old (purchased from Charles River Japan) were euthanized by anesthesia with ether and immediately immersed in 70% ethanol for disinfection. By the use of ophthalmologist scissors and pincers sterilized in advance with ethanol, femur and tibia were excised from the sacrificed mice and chopped into small pieces in an α-MEM culture medium (purchased from Flow Laboratories Corp.). containing 5% FBS (purchased from Irvine Scientific Corp.), 100 U/ml penicillin and 100 μg/ml streptomycin. The supernatant formed consequently was recovered by pipeting, cleaned with the culture broth, and suspended in a 5% FBS α-MEM culture broth to obtain bone cells containing osteoclast cells. The supernatant of a bone cell-floating liquid formed after 3 minutes' standing of the bone cells at rest was recovered and passed through a mesh (cell strainer, 70 μm, purchased from Falcon Corp.). The filtrate was adjusted to a cell concentration of 1×10^7 /ml and used for the pit formation assay.
An ivory piece was cut into slices, 150 μm in thickness, by the use of a precision low-speed cutting machine (purchased from Buehler Corp.). Cylindrical holes, 6 mm in diameter, were perforated in the slices by the use of a one-hole punch. The ivory slices were immersed in 70% ethanol and subjected therein to an ultrasonic cleaning treatment twice each for five minutes and washed three times with a sterilized PBS and twice with the culture medium. The ivory slices were set in place on a 96-hole culture plate (purchased from Falcon Corp.). The perforated ivory slices on the culture plate, with a culture broth containing a given compound of the present invention prepared in a concentration of 2×10^-5 M added in a fixed volume of 100 μl (final medicine concentration 1×10^-5 M) to each of the holes and a culture broth containing prepared bone cells in a concentration of 1×10^7 /ml placed in each of the holes, were cultured for three days in a 10% CO2 incubator at 37° C. After the culture, the ivory slices were placed in an aqueous 2 N sodium hydroxide and the cells on the slices were removed by the use of a rubber spatula. The ivory slices were washed with water and methanol. The absorption pits formed in the ivory slices were dyed with Coomassie Brilliant Blue and were counted under a microscope. Though the numbers of absorption pits were naturally found to disperse among test lots, depending on the ratios of varying specie s of cells in the bone cell suspensions and the lots of animals used, satisfactorily uniform test results were found in one and the same test lot. The ratio of inhibition of osteolysis was calculated on the 100% scale, in which 0% stands for the number of absorption pits found in the culture broth in the presence of rPTH (1×10^-8 M) and in the absence of a medicine and 100% for total absence of absorption pit.
The test described above was performed in a total of ten runs, Tests 1-10.
In the columns titled "Added medicine No." found in Table 2 and Table 3, the symbol (-) denotes a control involving no addition of medicine and the numerical No. denotes the No. of the compound mentioned above.

For the compound `CC(C)CCc1c(O)c(CCC(C)C)c(O)c(C(=O)CC(C)C)c1O` [Compound 37, {3,5-bis(3-methylbutyl)-2,4,6-trihydroxyphenyl} (2-methylpropyl) ketone], the “No. of absorption pits (Mean ± SD)” value worked out at 14.4 ± 4.9 and the inhibition at 10 µM was 91.1%.

As for `CC(C)=CCC1(CC=C(C)C)C(=O)C(C(=O)CC(C)CCCC(C)C)=C(O)C=C1O` (stereo not drawn) [Compound 24, 2,2-bis(3-methyl-2-butenyl)-3,5-dihydroxy-6-(3,7-dimethyl-1-oxooctyl)cyclohexa-3,5-dienone], the “No. of absorption pits (Mean ± SD)” value turned out to be 39.3 ± 13.9 and the inhibition at 10 µM worked out at 75.8%.

As to `CC(C)=CCc1c(O)cc(O)c(C(=O)CC(C)C)c1C` [Compound 50, {4,6-dihydroxy-2-methyl-3-(3-methyl-2-butenyl)phenyl} (3-methylpropyl) ketone], the “No. of absorption pits (Mean ± SD)” value was determined as 40.1 ± 7.0 and the inhibition at 10 µM worked out at 80.1%.

As for `CC(C)=CCC1=C(O)C(O)(CC=C(C)C)C(=O)C(C(=O)c2ccccc2)=C1O` (stereo not drawn) [Compound 32, 2,4-bis(3-methyl-2-butenyl)-6-benzoyl-2,3,5-trihydroxycyclohexa-3,5-dienone], the “No. of absorption pits (Mean ± SD)” value worked out at 33.9 ± 4.1 and the inhibition at 10 µM was determined as 65.7%.

`CC(C)=CCCC(C)=CCC1=C(O)C(CC=C(C)CCC=C(C)C)(CC=C(C)CCC=C(C)C)C(=O)C(C(=O)Cc2ccccc2)=C1O` (stereo not drawn) [Compound 44, 3,5-dihydroxy-6-(phenylacetyl)-2,2,4-tris(3,7-dimethyl-2,6-octadienyl)cyclohexa-3,5-dienone]: the “No. of absorption pits (Mean ± SD)” value is 7.7 ± 2.0 and the inhibition at 10 µM was determined as 96.6%.

Take `CC(C)=CCc1c(O)c(CC=C(C)C)c(O)c(C(=O)CC(C)C)c1O` [Compound 15, {3,5-bis(3-methyl-2-butenyl)-2,4,6-trihydroxyphenyl} (2-methylpropyl) ketone]: the “No. of absorption pits (Mean ± SD)” value turned out to be 8.3 ± 2.4 and the inhibition at 10 µM turned out to be 89.6%.

Take `CC(C)=CCC1(CC=C(C)C)C(=O)C(C(=O)Cc2ccccc2)=C(O)C=C1O` [Compound 41, 3,5-dihydroxy-6-(phenylacetyl)-2,2-bis(3-methyl-2-butenyl)cyclohexa-3,5-dienone]: the “No. of absorption pits (Mean ± SD)” value turned out to be 3.2 ± 0.7 and the inhibition at 10 µM worked out at 97.4%.

On to `CC(C)=CCC1=C(O)C(CC=C(C)C)(CC=C(C)C)C(=O)C(C(=O)Cc2ccccc2)=C1O` [Compound 40, 3,5-dihydroxy-6-(phenylacetyl)-2,2,4-tris(3-methyl-2-butenyl)-cyclohexa-3,5-dienone], for which the “No. of absorption pits (Mean ± SD)” value turned out to be 4.9 ± 3.8 and the inhibition at 10 µM turned out to be 96.1%.

For the compound `CC(C)=CCCC(C)=CCc1c(O)c(CC=C(C)CCC=C(C)C)c(O)c(C(=O)CC(C)C)c1O` [Compound 19, {3,5-bis(3,7-dimethyl-2,6-octadienyl)-2,4,6-trihydroxyphenyl} (2-methylpropyl) ketone], the “No. of absorption pits (Mean ± SD)” value is 55.3 ± 6.1 and the inhibition at 10 µM worked out at 70.5%.

Regarding `CC(C)=CCC1=C(O)C(CC=C(C)C)(CC=C(C)C)C(=O)C(C(=O)CC(C)CCCC(C)C)=C1O` (stereo not drawn) [Compound 22, 3,5-dihydroxy-6-(3,7-dimethyl-1-oxooctyl)-2,2,4-tris(3-methyl-2-butenyl)cyclohexa-3,5-dienone], the “No. of absorption pits (Mean ± SD)” value came out at 3.5 ± 1.1 and the inhibition at 10 µM stood at 98.1%.

Turning to `CC(C)=CCOc1ccc(C(=O)CC(C)C)c(O)c1` [Compound 53, {2-hydroxy-4-(3-methyl-2-butenyloxy)phenyl} (2-methylpropyl) ketone], the “No. of absorption pits (Mean ± SD)” value turned out to be 55.1 ± 11.1 and the inhibition at 10 µM amounted to 67.8%.

For the compound `CC(C)CCCC(C)CC(=O)c1c(O)cc(O)cc1O` (stereo not drawn) [Compound 6, (2,6-dimethylheptyl) (2,4,6-trihydroxyphenyl) ketone], the “No. of absorption pits (Mean ± SD)” value is 63.4 ± 12.4 and the inhibition at 10 µM was 61.4%.

In the case of `CC(C)=CCCC(C)=CCC1(CC=C(C)CCC=C(C)C)C(=O)C(C(=O)CC(C)C)=C(O)C=C1O` (stereo not drawn) [Compound 21, 2,2-bis(3,7-dimethyl-2,6-octadienyl)-3,5-dihydroxy-6-(3-methyl-1-oxobutyl)cyclohexa-3,5-dienone], the “No. of absorption pits (Mean ± SD)” value worked out at 3.5 ± 1.4 and the inhibition at 10 µM turned out to be 98.1%.

`CC(C)=CCC1(CC=C(C)C)C(=O)C(C(=O)C(C)C)=C(O)C=C1O` [Compound 13, 2,2-bis(3-methyl-2-butenyl)-3,5-dihydroxy-6-(2-methyl-1-oxopropyl)cyclohexa-3,5-dienone]: the “No. of absorption pits (Mean ± SD)” value amounted to 16.8 ± 3.6 and the inhibition at 10 µM came out at 79%.

In the case of `CC(C)=CCc1c(O)c(O)c(CC=C(C)C)c(C(=O)CC(C)C)c1O` [Compound 25, {3,6-bis(3-methyl-2-butenyl)-2,4,5-trihydroxyphenyl} (2-methylpropyl) ketone], the “No. of absorption pits (Mean ± SD)” value is given as 0 and the inhibition at 10 µM came out at 100%.
